These results are taken from PMC12786078, “Identification of Novel JAK2 Inhibitors from Amino Derivatives of Epoxyalantolactone: In Silico and In Vitro Studies” (International Journal of Molecular Sciences, 2025).

One data set has as its target T1, JAK2 (Homo sapiens, UniProt O60674).
T1 construct: purchased Sigma-Aldrich SRP0171
In words: JAK2 kinase assay (ADP-Glo). To be noted: 5 μM ATP, mean ± SEM, read-out: IC50, JAK2 kinase inhibition. Type of data set: biochemical. As for the experimental part:
For each reaction, 2.5 ng/μL of JAK2 enzyme (SRP0171, Sigma-Aldrich) was combined with 1 μM of the test compounds or known drugs, 5 μM ATP, and 2 ng/μL of poly(glu·tyr) substrate in a reaction buffer containing 40 mM Tris-HCl (pH 7.5), 20 mM MgCl2, and 0.1 mg/mL BSA. The reaction mixture was incubated at room temperature for 1 h. After incubation, 5 μL of the ADP-Glo reagent was added to each reaction, followed by an additional 40 min incubation. Next, 10 μL of the kinase detection reagent was added, and the reactions were incubated at room temperature for 30 min to convert ADP to ATP. Luminescence, reflecting ATP levels, was measured using an EnSight Multimode Microplate Reader. […] All assays were performed in triplicate, and the resulting data were presented as the relative inhibition (%) of inhibitors compared to the control without any inhibitor, as shown in Equation (1).(1) %Relative inhibition=[positive−negative−sample−negative]/(positive−negative)×100
For orientation: In ADP-Glo the light output rises with the ADP produced.

In data set [1] the test system is HeLa cells. The data set can be described thus: MTT cytotoxicity assay. The conditions noted are these: 48 h. In general terms: Tetrazolium assays rely on reduction of a dye to a coloured formazan, in cell work by metabolically active cells.
Protocol: (§1) Human cervical adenocarcinoma (HeLa), hepatocellular carcinoma (HepG2) and mouse fibroblast (L929) cells were cultured in Dulbecco’s Modified Eagle’s Medium (DMEM) containing 10% fetal bovine serum (FBS), 100 U/mL penicillin G, and 100 μg/mL streptomycin. Human neuroblastoma (SH-SY5Y) cells were maintained in DMEM/F-12 medium with the same supplements. All cultures were incubated at 37 °C in a humidified atmosphere of 5% CO2.
(§2) Cells were seeded in 96-well plates at a density of 5 × 10^3 cells per well in 100 µL of complete DMEM and incubated overnight at 37 °C in a humidified incubator with 5% CO2. […] After 48 h of treatment, 100 µL of MTT solution (0.5 mg/mL in serum-free medium) was added to each well and incubated for an additional 3 h at 37 °C. The supernatant was then removed, and 100 µL of DMSO was added to dissolve the resulting formazan crystals. Absorbance was measured at 570 nm using an EnSight Multimode Microplate Reader (PerkinElmer, Waltham, MA, USA). IC50 values were calculated using nonlinear regression analysis in GraphPad Prism version 9.
Another data set has as its system L929 fibroblasts. The data set can be described thus: MTT cytotoxicity assay. The conditions noted are these: read-out: IC50 L929.
In the next data set the test system is HepG2 cells. In words: MTT cytotoxicity assay. The conditions noted are these: read-out: IC50 HepG2.
In data set [2] the test system is SH-SY5Y neuroblastoma cells. In words: MTT cytotoxicity assay. The conditions noted are these: read-out: IC50 SH-SY5Y, 48 h.
Protocol: as §1, §2
The test system of a further data set is HEK-293T cells. The data set can be described thus: MTT cytotoxicity assay. To be noted: read-out: IC50 HEK-293T.
The test system of data set [3] is HeLa cells. In words: DCFH2-DA intracellular ROS assay. Type of data set: cell-based, human. As for the experimental part: After 24 h, the cells were incubated with 100 µL of 10 µM DCFH2-DA (Sigma-Aldrich) diluted in Hank’s Balanced Salt Solution (HBSS) at 37 °C for 30 min in the dark. […] At the end of the treatment, cells were washed twice with cold phosphate-buffered saline (PBS), and 200 µL of 1% Triton X-100 in 0.3 M NaOH was added to lyse the cells.

Data set [4] is described as follows: Annexin V-FITC/PI apoptosis detection by flow cytometry. The conditions noted are these: human, HeLa cells.
Protocol: (§3) HeLa cells were seeded in 6-well plates at a density of 3 × 10^5 cells per well in 2 mL of complete DMEM and allowed to adhere overnight. […] Following treatment, cells were harvested by trypsinization and washed twice with 1 mL of cold phosphate-buffered saline (PBS) to remove non-adherent and dead cells. The cell pellets were resuspended in 100 µL of binding buffer and stained with 5 µL of Annexin V-FITC and 5 µL of propidium iodide (PI, 0.05 µg/mL). The staining was performed in the dark at room temperature for 15 min. Apoptotic cell death was quantified by flow cytometry, with early and late apoptotic populations distinguished based on Annexin V-FITC and PI fluorescence signals.
Data set [5] relates to HeLa cells. The data set is described as above.
Protocol: as §3
Where [6] appears, read: IC50 concentration of the compound.
Setting [7] is: HeLa, 48 h, at IC50 (SL10 8 µM, SL35 6 µM, ruxolitinib 25 µM).

Structures are written as SMILES. Values joined by “and” are separate entries in the source; they are usually repeats but may differ in a detail not shown here. Equal entries are not always repeated. Where two headings read alike, the source gives them in different places.

T1 sequence (O60674 808-1132 limits assumed): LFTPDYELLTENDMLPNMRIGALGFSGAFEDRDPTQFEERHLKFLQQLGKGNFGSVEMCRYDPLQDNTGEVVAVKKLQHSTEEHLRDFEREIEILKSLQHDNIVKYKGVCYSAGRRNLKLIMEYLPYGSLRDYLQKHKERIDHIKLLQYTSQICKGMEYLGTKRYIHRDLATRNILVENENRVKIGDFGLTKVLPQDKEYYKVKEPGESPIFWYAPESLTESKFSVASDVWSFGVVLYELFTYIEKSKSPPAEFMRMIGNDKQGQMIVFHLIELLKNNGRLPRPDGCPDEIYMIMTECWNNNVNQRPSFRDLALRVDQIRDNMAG
Protocol for HEK-293T cells: as §2
Protocol for HepG2 cells: as §1, §2
Protocol for L929 fibroblasts: as §1, §2

As to `COc1ccc(CN2CC3C(=O)OC4CC5(C)CCCC(C)C5(O)C2C43)cc1OC` (stereo not drawn) [SL8], the IC50 (as a rule, the concentration at which inhibition is half-maximal) on JAK2 came out at 0.0871 ± 0.0026 µM; in the data set with HeLa cells [1] (read-out: IC50 HeLa, MTT), 88.2 µM; in the data set with L929 fibroblasts (MTT, 48 h) it was 92.6 ± 2.87 µM; in the data set on HepG2 cells (MTT, 48 h), 42.6 ± 2.14 µM; in data set [2] (MTT) it was 59.6 ± 2.84 µM; with HEK-293T cells (MTT), 90.7 ± 1.61 µM.
With `OO` [H2O2, hydrogen peroxide, reference compound], the “intracellular ROS level relative to control” value in the data set on HeLa cells [3] (200 µM) is “approximately 1.7 fold”.
`O=C1O[C@H]([C@@H](O)CO)C(O)=C1O` [Vitamin C, L-ascorbic acid, reference compound]: in the data set on HeLa cells [3] (200 µM), the “intracellular ROS level relative to control” value is “about 0.8 fold”.
As to `N#CC[C@H](C1CCCC1)n1cc(-c2ncnc3[nH]ccc23)cn1` [Ruxolitinib, reference compound], the IC50 in the data set on HeLa cells [1] (Homo sapiens, HeLa, read-out: IC50 HeLa, MTT, 48 h) is 25 ± 1.3 µM; in the data set with HeLa cells [1] (read-out: IC50 HeLa, MTT), 25 ± 1.25 µM; in the data set on L929 fibroblasts (Mus musculus, L929, 48 h), 80.4 ± 2.33 µM; in the data set on HepG2 cells (Homo sapiens, HepG2, 48 h), 34.6 ± 2.56 µM; in [2] (Homo sapiens, SH-SY5Y) it was 68.63 ± 0.19 µM; in the data set with HEK-293T cells (Homo sapiens, HEK-293T) it was 89.7 ± 1.98 µM. In [4], the viability (commonly the share of living cells, or the viability signal relative to a control) at 48 h, 25 µM turned out to be 63.5 ± 2.17%.
In the case of `CC1CCCC2(C)CC3OC(=O)C(CN4CCN(c5ccccc5)CC4)C3C3OC132` (stereo not drawn) [SL10], the IC50 on JAK2 is 0.0127 µM; in the data set on HeLa cells [1] (read-out: IC50 HeLa, MTT), 8.47 ± 0.74 µM; in the data set with L929 fibroblasts (MTT, 48 h), 25.4 µM; in the data set on HepG2 cells (MTT, 48 h) it was 19.7 µM; in data set [2] (MTT), 23.1 µM; in the data set with HEK-293T cells (MTT), 14.5 ± 0.74 µM. The “intracellular ROS level relative to control” value in the data set with HeLa cells [3] (setting [6]) was “approximately 1.4 fold”. This compound registered an early apoptosis in the data set on HeLa cells [5] (setting [7]) of 56.39 ± 2.21%. In the data set with HeLa cells [5] (setting [7]), this compound displayed a late apoptosis of 11.61 ± 0.99%. Further, the viable cells in the data set on HeLa cells [5] (setting [7]) amounted to 31.30 ± 2.21%.
`CC1CCCC2(C)CC3OC(=O)C(CN4CCN(c5ccc(F)cc5)CC4)C3C3OC132` (stereo not drawn) [SL14]: the IC50 came to 0.0576 ± 0.0012 µM at JAK2; 13.2 µM in the data set with HeLa cells [1] (read-out: IC50 HeLa, MTT); 52.8 ± 1.92 µM with L929 fibroblasts (MTT, 48 h); 27.5 ± 0.73 µM in the data set on HepG2 cells (MTT, 48 h); 35.8 ± 2.13 µM in data set [2] (MTT); 50.9 ± 3.3 µM in the data set with HEK-293T cells (MTT).
With `CC1CCCC2(C)CC3OC(=O)C(CN4CCN(c5ncccn5)CC4)C3C3OC132` (stereo not drawn) [SL35], the IC50 was 0.0217 µM and 0.0216 µM on JAK2; 6.07 ± 0.11 µM in the data set on HeLa cells [1] (read-out: IC50 HeLa, MTT); 23.1 µM in the data set with L929 fibroblasts (MTT, 48 h); 13.3 µM with HepG2 cells (MTT, 48 h); 19.2 µM and 19.3 µM in [2] (MTT); 14.6 ± 1.05 µM with HEK-293T cells (MTT). In the data set with HeLa cells [3] (setting [6]), the “intracellular ROS level relative to control” value is given as “around 2.0 fold”. In addition, the viable cells in the data set with HeLa cells [5] is reported as 66.19 ± 1.51%. Besides, the early apoptosis in the data set on HeLa cells [5] (setting [7]) is given as 26.30 ± 1.69%. Besides, the late apoptosis with HeLa cells [5] (setting [7]) turned out to be 5.20 ± 0.34%.
`Cc1cccc(N2CCN(CC3C(=O)OC4CC5(C)CCCC(C)C56OC6C43)CC2)c1` (stereo not drawn) [SL31]: the IC50 at JAK2 came to 0.0893 ± 0.0015 µM; in the data set on HeLa cells [1] (read-out: IC50 HeLa, MTT) it was 13.7 µM; in the data set on L929 fibroblasts (MTT, 48 h), 62.8 ± 3.39 µM; in the data set with HepG2 cells (MTT, 48 h) it was 19.62 ± 0.05 µM; in data set [2] (MTT), 24.2 ± 1.69 µM; in the data set on HEK-293T cells (MTT), 24.5 ± 1.12 µM.
In the case of `CC1CCCC2(C)CC3OC(=O)C4CN(CCc5c[nH]c6ccccc56)C(C34)C12O` (stereo not drawn) [SL33], the IC50 at JAK2 is 0.0791 ± 0.0018 µM; in the data set with HeLa cells [1] (read-out: IC50 HeLa, MTT), 33.8 ± 2.8 µM; with HeLa cells [1] (read-out: IC50 HeLa, MTT, listed as SLL33), 33.8 ± 2.78 µM; in the data set on L929 fibroblasts (MTT, 48 h), 40.5 ± 2.22 µM; in the data set on HepG2 cells (MTT, 48 h), 45.28 ± 0.41 µM; in [2] (MTT), 58.6 ± 0.71 µM. Moreover, the IC50 in the data set with HEK-293T cells (MTT) is 29.3 ± 0.96 µM.
